Patent US20070093455A1, “10-substituted tetracyclines and methods of use thereof” (priority 2005, published 2007)
In brackets after ≈: the same amount, converted by molar mass.

Assays:
[1] = tested on: P. acnes (ATCC 1077); test: In vitro MIC assay, P. acnes (ATCC 1077); assay type: cell-based; conditions: Cutibacterium acnes, ATCC1077; Brucella agar with laked sheep blood, 48 hours anaerobic, 35° C.
[2] = tested on: P. granulosum (PBS 1098); test: In vitro MIC assay, P. granulosum (PBS 1098); assay type: cell-based
[3] = tested on: E. coli MG 1655 DWAK; test: In vitro MIC assay, E. coli MG 1655 DWAK; assay type: cell-based; conditions: Escherichia coli, MG1655DWAK; broth microdilution, 35° C., 18-24 hours
Protocol: The following assay was used to determine the efficacy of tetracycline compounds against common bacteria. Serial dilutions of compounds were prepared in microdilution plates using a Tecan robotic workstation. Mueller Hinton broth cultures of gram negative and gram positive strains were grown or adjusted to match the turbidity of a 0.5 McFarland standard. 1:200 dilutions were made in appropriate broth (cation supplemented Mueller Hinton broth or Haemophilus test medium) to allow a final inoculum of 1×10^5 cfu. Lysed horse blood was used to supplement broth for testing S. pneumoniae. The plates were incubated at 35° C. in ambient air for 18-24 hours, read spectrophotometrically, and checked manually for evidence of bacterial growth. Serial dilutions of compounds were also added to Brucella agar supplemented with laked sheep blood for P. acnes tests. A standard inoculum was transferred to the plate using a stainless steel replicator. After 48 hours of anaerobic incubation at 35° C. plates were examined. The MIC was defined as the lowest concentration of the tetracycline compound that inhibits growth. Table 3 gives the MIC (μg/mL) of selected substituted tetracycline compounds against a variety of gram positive and gram negative bacteria.

[4] = tested on: P. acnes (ATCC 6919); test: In vitro MIC assay, P. acnes (ATCC 6919); assay type: cell-based; conditions: Cutibacterium acnes, ATCC6919; Brucella agar with laked sheep blood, 48 hours anaerobic, 35° C.
[5] = tested on: B. fragilis (ATCC 25285); test: In vitro MIC assay, B. fragilis (ATCC 25285); assay type: cell-based; conditions: Bacteroides fragilis, ATCC25285
[6] = tested on: S. aureus RN4250; test: In vitro MIC assay, S. aureus RN4250; assay type: cell-based; conditions: Staphylococcus aureus, broth microdilution, 35° C., 18-24 hours
[7] = tested on: S. aureus MRSA5; test: In vitro MIC assay, S. aureus MRSA5; assay type: cell-based; conditions: Staphylococcus aureus, broth microdilution, 35° C., 18-24 hours
[8] = tested on: P. granulosum (PBS 1048); test: In vitro MIC assay, P. granulosum (PBS 1048); assay type: cell-based
[9] = tested on: P. aeruginosa K1033; test: In vitro MIC assay, P. aeruginosa K1033; assay type: cell-based; conditions: Pseudomonas aeruginosa, broth microdilution, 35° C., 18-24 hours
[10] = tested on: E. coli (ATCC 25922); test: In vitro MIC assay, E. coli (ATCC 25922); assay type: cell-based; conditions: Escherichia coli, ATCC25922; broth microdilution, 35° C., 18-24 hours
[11] = tested on: B. theraiotaomicron (ATCC 29741); test: In vitro MIC assay, B. theraiotaomicron (ATCC 29741); assay type: cell-based
[12] = tested on: Mouse 3T3 fibroblast cells; test: Phototoxicity assay (neutral red); assay type: cell-based; conditions: 3T3 cells
Protocol: Mouse 3T3 fibroblast cells were harvested and plated at a concentration of 1×10^5 cells/mL. Drug dilutions were made in HBSS and added to the plates. Duplicate plates were then incubated in the dark (for controls), or under UV light (meter reading of 1.6-1.8 mW/cm^2) for 50 minutes. Cells were then washed with HBSS, fresh medium was added, and plates were then incubated overnight. The following day, neutral red was added as an indicator of cell viability and plates were incubated for an additional 3 hours. Cells were then washed with HBSS and a solution of 50% EtOH, 10% glacial acetic acid is added. After a 20 minute incubation period, plates absorbance at 535 nm were read using a Wallac Victor 5 spectrophotometer. The phototoxicity in light-treated and control cultures was then compared.

[13] = tested on: S. aureus RN450; test: In vitro MIC assay, S. aureus RN450; assay type: cell-based; conditions: Staphylococcus aureus, broth microdilution, 35° C., 18-24 hours
[14] = tested on: carrageenan induced paw edema; test: Rat model of carrageenan induced paw edema; assay type: in vivo; conditions: 3 hours after carrageenan injection
Protocol: Carrageenan-induced paw edema represents a commonly used experimental model to assess the anti-inflammatory properties of agents. In this example, male Sprague-Dawley rats (Charles River, Mass.) weighing 175-250 grams were used. Test compounds were administered intraperitoneally 5 minutes or orally 15 minutes before a subplantar injection of carrageenan (5 mg/1 ml) in the rat right hind paw. The paw volume (ml) was monitored with a plethysmometer (Water Plethysmometer) at time of carrageenan injection (baseline) and 3 hours after carrageenan injection. […] Both results were statistically significant with a p<0.1 level by Kruskal-Wallis One Way ANOVA, ChiSquare. There were approximately four rats per group.

[15] = tested on: P. acnes (ATCC 11827); test: In vitro MIC assay, P. acnes (ATCC 11827); assay type: cell-based; conditions: Cutibacterium acnes, ATCC11827; Brucella agar with laked sheep blood, 48 hours anaerobic, 35° C.
[16] = tested on: P. acnes (PBS 994); test: In vitro MIC assay, P. acnes (PBS 994); assay type: cell-based; conditions: Cutibacterium acnes; Brucella agar with laked sheep blood, 48 hours anaerobic, 35° C.
[17] = tested on: P. acnes (PBS 1074); test: In vitro MIC assay, P. acnes (PBS 1074); assay type: cell-based; conditions: Cutibacterium acnes; Brucella agar with laked sheep blood, 48 hours anaerobic, 35° C.
[18] = tested on: COS-1 or CHO cell; test: Mammalian cell cytotoxicity assay (Resazurin; Alamar Blue); assay type: cell-based; conditions: COS-1 or CHO cells, 24 hour incubation
Protocol: To predict the in vivo risks associated with the compounds of the invention, a soluble, non-toxic redox dye (“Resazurin”; Alamar Blue) was used to assess a compound's effect on cellular metabolism. COS-1 or CHO cell suspensions were prepared, seeded into 96-well black-walled microtiter plates, and incubated overnight at 37° C., in 5% CO2 and approximately 95% humidity. On the next day, serial dilutions of test drug were prepared and transferred to cell plates. Following a 24 hour incubation period, the media/drug was aspirated, and 50 μL of resazurin was added. After a 2 hour incubation, fluorescence measurements were taken (excitation […], emission 590 nm) and toxic effects in treated versus control cells were compared based on the degree of fluorescence in each well.

[19] = tested on: H. influenza (ATCC 49247); test: In vitro MIC assay, H. influenza (ATCC 49247); assay type: cell-based; conditions: read-out: MIC H. influenza (ATCC 49247)
[20] = tested on: P. acnes (PBS 1073); test: In vitro MIC assay, P. acnes (PBS 1073); assay type: cell-based; conditions: Cutibacterium acnes; Brucella agar with laked sheep blood, 48 hours anaerobic, 35° C.
[21] = tested on: P. acnes (PBS 1080); test: In vitro MIC assay, P. acnes (PBS 1080); assay type: cell-based; conditions: Cutibacterium acnes; Brucella agar with laked sheep blood, 48 hours anaerobic, 35° C.
[22] = tested on: S. pneumoniae 157E; test: In vitro MIC assay, S. pneumoniae 157E; assay type: cell-based; conditions: Streptococcus pneumoniae, broth supplemented with lysed horse blood, 35° C., 18-24 hours
[23] = tested on: E. coli translation; test: In vitro translation assay for inhibition of bacterial protein synthesis (E. coli S30 Extract System, luciferase); assay type: biochemical; conditions: 37° C., 1 hour, luciferase luminescence
Protocol: As a further measure of antibacterial activity, an E. coli S30 Extract System was used to quantitate inhibition of E. coli translation by tetracycline derivatives. This system contained all required components for translation, including a nucleic acid template which, when translated, produces functional luciferase. The reactions were set up with E. coli S30 extract, amino acids, DNA template and selected tetracycline compounds at concentrations of 100, 50, 25, 10, 5, and 1 μg/ml. The reactions were incubated at 37° C. for 1 hour and analyzed by adding the reaction mix to Steady-Glo Luciferase Assay substrate (Promega, Madison Wis.). Luminescence was measured with the Wallac Victor5 plate reader and inhibition is calculated by comparing luciferase activity in experimental reactions versus controls.

Row | SMILES | MIC [1] [µg/mL] | MIC [3] [µg/mL] | MIC [4] [µg/mL] | MIC [5] [µg/mL] | MIC [6] [µg/mL] | MIC [7] [µg/mL] | MIC [9] [µg/mL] | MIC [10] [µg/mL] | MIC [11] [µg/mL] | phototoxicity at 150 μM, incubated in the dark [12] | MIC [13] [µg/mL] | MIC [15] [µg/mL] | MIC [17] [µg/mL] | cytotoxicity at 75 μg/mL [18] | MIC [19] [µg/mL] | MIC [20] [µg/mL] | MIC [22] [µg/mL] | further results
1 | CN(C)c1cccc2c1CC1CC3[C@H](N(C)C)C(O)=C(C(N)=O)C(=O)[C@@]3(O)C(O)=C1C2=O (stereo partly drawn) [Compound A] | 9 to 27 (≈ 20.4 to 61.2 µM) | 0 to 21 | 0 to 8 | 0 to 8 | 0 to 21 | 44 to 64 (≈ 99.7 to 145 µM) | 0 to 21 | 22 to 43 (≈ 49.8 to 97.4 µM) | 9 to 27 (≈ 20.4 to 61.2 µM) | not to be appreciably phototoxic | 0 to 21 | 0 to 8 | 9 to 27 (≈ 20.4 to 61.2 µM) | minimal cytotoxicity | 22 to 43 (≈ 49.8 to 97.4 µM) | 9 to 27 (≈ 20.4 to 61.2 µM) | 0 to 21 | MIC [2]: 9 to 27 µg/mL (≈ 20.4 to 61.2 µM); MIC [8]: 9 to 27 µg/mL (≈ 20.4 to 61.2 µM); decrease in paw inflammation relative to the untreated control ([14]; 75 mg/kg IP): 60%; MIC [16]: 9 to 27 µg/mL (≈ 20.4 to 61.2 µM); MIC [21]: 9 to 27 µg/mL (≈ 20.4 to 61.2 µM); IC20 [23]: > 100 µM; IC50 [23]: > 100 µM
2 | CC(=O)c1cccc2c1CC1CC3[C@H](N(C)C)C(O)=C(C(N)=O)C(=O)[C@@]3(O)C(O)=C1C2=O (stereo partly drawn) [J] | 28 to 32 (≈ 63.6 to 72.7 µM) | 0 to 21 | 0 to 8 | 0 to 8 | 0 to 21 | 0 to 21 | 0 to 21 | 0 to 21 | 28 to 32 (≈ 63.6 to 72.7 µM) | not to be appreciably phototoxic | 0 to 21 | 0 to 8 | 28 to 32 (≈ 63.6 to 72.7 µM) | minimal cytotoxicity | 0 to 21 | 28 to 32 (≈ 63.6 to 72.7 µM) | 0 to 21 | 
3 | CN(C)c1ccc(O)c2c1C[C@H]1C[C@H]3[C@H](N(C)C)C(O)=C(C(N)=O)C(=O)[C@@]3(O)C(O)=C1C2=O [Minocycline, reference compound] |  |  |  |  |  |  |  |  |  |  |  |  |  |  |  |  |  | reduced inflammation relative to the untreated control ([14]; 50 mg/kg IP, positive control): 70%
4 | CC(=O)c1cccc2c1CC1CC3[C@@H](N(C)C)C(O)=C(C(N)=O)C(=O)[C@@]3(O)C(O)=C1C2=O (stereo partly drawn) [I] | 28 to 32 (≈ 63.6 to 72.7 µM) | 0 to 21 | 0 to 8 | 0 to 8 | 0 to 21 | 0 to 21 | 0 to 21 | 22 to 43 (≈ 49.9 to 97.6 µM) | 28 to 32 (≈ 63.6 to 72.7 µM) | not to be appreciably phototoxic | 0 to 21 | 0 to 8 | 28 to 32 (≈ 63.6 to 72.7 µM) | minimal cytotoxicity | 0 to 21 | 28 to 32 (≈ 63.6 to 72.7 µM) | 0 to 21 | phototoxicity at 30 μM, incubated in the UV light ([12]; UV light 1.6-1.8 mW/cm^2, 30 μM): minimally phototoxic
